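Five compound concentrations were applied to cells in 96-well plates for 48 hours; endpoints were derived by simple linear interpolation of the resulting dose-response curve. TGI denotes the concentration required for complete inhibition of growth.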
Assays:
Test in all cases: DTP human tumour cell line panel, 48 h
SW-620 colon = tested on: SW-620 colon
M14 melanoma = tested on: M14 melanoma
CCRF-CEM leukemia = tested on: CCRF-CEM leukemia
HOP-62 NSCLC = tested on: HOP-62 NSCLC
HT29 colon = tested on: HT29 colon
SK-MEL-28 melanoma = tested on: SK-MEL-28 melanoma
DMS 114 small cell lung = tested on: DMS 114 small cell lung
K-562 leukemia = tested on: K-562 leukemia
XF 498 CNS = tested on: XF 498 CNS
KM20L2 colon = tested on: KM20L2 colon
IGROV1 ovarian = tested on: IGROV1 ovarian
HCC-2998 colon = tested on: HCC-2998 colon
SR leukemia = tested on: SR leukemia
A549 NSCLC = tested on: A549 NSCLC
UACC-62 melanoma = tested on: UACC-62 melanoma
OVCAR-4 ovarian = tested on: OVCAR-4 ovarian
OVCAR-5 ovarian = tested on: OVCAR-5 ovarian
SF-295 CNS = tested on: SF-295 CNS
HCT-116 colon = tested on: HCT-116 colon
U251 CNS = tested on: U251 CNS
UACC-257 melanoma = tested on: UACC-257 melanoma
OVCAR-3 ovarian = tested on: OVCAR-3 ovarian
SK-MEL-2 melanoma = tested on: SK-MEL-2 melanoma
RPMI-8226 leukemia = tested on: RPMI-8226 leukemia
HCT-15 colon = tested on: HCT-15 colon
MOLT-4 leukemia = tested on: MOLT-4 leukemia
SF-539 CNS = tested on: SF-539 CNS
RXF 393 renal = tested on: RXF 393 renal
A498 renal = tested on: A498 renal
SNB-75 CNS = tested on: SNB-75 CNS
DMS 273 small cell lung = tested on: DMS 273 small cell lung
EKVX NSCLC = tested on: EKVX NSCLC
SK-MEL-5 melanoma = tested on: SK-MEL-5 melanoma
NCI-H23 lung = tested on: NCI-H23 lung
SNB-78 CNS = tested on: SNB-78 CNS
COLO 205 colon = tested on: COLO 205 colon
TK-10 renal = tested on: TK-10 renal
SN12C renal = tested on: SN12C renal
RXF-631 renal = tested on: RXF-631 renal
SK-OV-3 ovarian = tested on: SK-OV-3 ovarian
HOP-18 NSCLC = tested on: HOP-18 NSCLC
HL-60(TB) leukemia = tested on: HL-60(TB) leukemia
NCI-H460 lung = tested on: NCI-H460 lung
LOX IMVI melanoma = tested on: LOX IMVI melanoma
M19-MEL melanoma = tested on: M19-MEL melanoma
OVCAR-8 ovarian = tested on: OVCAR-8 ovarian
ACHN renal = tested on: ACHN renal
LXFL 529 NSCLC = tested on: LXFL 529 NSCLC
UO-31 renal = tested on: UO-31 renal
KM12 colon = tested on: KM12 colon
HOP-92 NSCLC = tested on: HOP-92 NSCLC
MALME-3M melanoma = tested on: MALME-3M melanoma
DLD-1 colon = tested on: DLD-1 colon
NCI-H226 lung = tested on: NCI-H226 lung
SF-268 CNS = tested on: SF-268 CNS
786-0 renal = tested on: 786-0 renal
CAKI-1 renal = tested on: CAKI-1 renal

Compound: Cc1ccc(Oc2ccc(C)cc2[N+](=O)[O-])cc1
- TGI (SW-620 colon): > 100 µM
- TGI (M14 melanoma): > 100 µM
- TGI (CCRF-CEM leukemia): > 100 µM
- TGI (HOP-62 NSCLC): > 100 µM
- TGI (HT29 colon): > 100 µM
- TGI (SK-MEL-28 melanoma): > 100 µM
- TGI (DMS 114 small cell lung): > 100 µM
- TGI (K-562 leukemia): > 100 µM
- TGI (XF 498 CNS): 64.5 µM
- TGI (KM20L2 colon): > 100 µM
- TGI (IGROV1 ovarian): > 100 µM
- TGI (HCC-2998 colon): > 100 µM
- TGI (SR leukemia): > 100 µM
- TGI (A549 NSCLC): > 100 µM
- TGI (UACC-62 melanoma): > 100 µM
- TGI (OVCAR-4 ovarian): > 100 µM
- TGI (OVCAR-5 ovarian): > 100 µM
- TGI (SF-295 CNS): > 100 µM
- TGI (HCT-116 colon): > 100 µM
- TGI (U251 CNS): > 100 µM
- TGI (UACC-257 melanoma): > 100 µM
- TGI (OVCAR-3 ovarian): > 100 µM
- TGI (SK-MEL-2 melanoma): > 100 µM
- TGI (RPMI-8226 leukemia): > 100 µM
- TGI (HCT-15 colon): > 100 µM
- TGI (MOLT-4 leukemia): > 100 µM
- TGI (SF-539 CNS): > 100 µM
- TGI (RXF 393 renal): 92.7 µM
- TGI (A498 renal): > 100 µM
- TGI (SNB-75 CNS): > 100 µM
- TGI (DMS 273 small cell lung): > 100 µM
- TGI (EKVX NSCLC): > 100 µM
- TGI (SK-MEL-5 melanoma): 92.6 µM
- TGI (NCI-H23 lung): > 100 µM
- TGI (SNB-78 CNS): 95 µM
- TGI (COLO 205 colon): > 100 µM
- TGI (TK-10 renal): > 100 µM
- TGI (SN12C renal): > 100 µM
- TGI (RXF-631 renal): > 100 µM
- TGI (SK-OV-3 ovarian): > 100 µM
- TGI (HOP-18 NSCLC): > 100 µM
- TGI (HL-60(TB) leukemia): 79.7 µM
- TGI (NCI-H460 lung): > 100 µM
- TGI (LOX IMVI melanoma): > 100 µM
- TGI (M19-MEL melanoma): > 100 µM
- TGI (OVCAR-8 ovarian): > 100 µM
- TGI (ACHN renal): > 100 µM
- TGI (LXFL 529 NSCLC): > 100 µM
- TGI (UO-31 renal): > 100 µM
- TGI (KM12 colon): > 100 µM
- TGI (HOP-92 NSCLC): > 100 µM
- TGI (MALME-3M melanoma): > 100 µM
- TGI (DLD-1 colon): > 100 µM
- TGI (NCI-H226 lung): > 100 µM
- TGI (SF-268 CNS): > 100 µM

Compound: CCOC(=O)C(C)(c1cn(C)c2ccccc12)c1cn(C)c2ccccc12
- TGI (SW-620 colon): > 100 µM
- TGI (M14 melanoma): > 100 µM
- TGI (CCRF-CEM leukemia): > 100 µM
- TGI (HOP-62 NSCLC): > 100 µM
- TGI (HT29 colon): > 100 µM
- TGI (SK-MEL-28 melanoma): > 100 µM
- TGI (DMS 114 small cell lung): > 100 µM
- TGI (K-562 leukemia): > 100 µM
- TGI (XF 498 CNS): > 100 µM
- TGI (KM20L2 colon): > 100 µM
- TGI (IGROV1 ovarian): > 100 µM
- TGI (HCC-2998 colon): > 100 µM
- TGI (A549 NSCLC): > 100 µM
- TGI (UACC-62 melanoma): > 100 µM
- TGI (OVCAR-4 ovarian): > 100 µM
- TGI (OVCAR-5 ovarian): > 100 µM
- TGI (SF-295 CNS): > 100 µM
- TGI (HCT-116 colon): > 100 µM
- TGI (U251 CNS): > 100 µM
- TGI (UACC-257 melanoma): > 100 µM
- TGI (OVCAR-3 ovarian): > 100 µM
- TGI (SK-MEL-2 melanoma): > 100 µM
- TGI (RPMI-8226 leukemia): > 100 µM
- TGI (HCT-15 colon): > 100 µM
- TGI (MOLT-4 leukemia): > 100 µM
- TGI (SF-539 CNS): > 100 µM
- TGI (RXF 393 renal): > 100 µM
- TGI (A498 renal): > 100 µM
- TGI (SNB-75 CNS): 51.9 µM
- TGI (DMS 273 small cell lung): > 100 µM
- TGI (EKVX NSCLC): > 100 µM
- TGI (786-0 renal): > 100 µM
- TGI (SK-MEL-5 melanoma): > 100 µM
- TGI (NCI-H23 lung): > 100 µM
- TGI (SNB-78 CNS): > 100 µM
- TGI (TK-10 renal): > 100 µM
- TGI (RXF-631 renal): > 100 µM
- TGI (SK-OV-3 ovarian): > 100 µM
- TGI (HL-60(TB) leukemia): > 100 µM
- TGI (NCI-H460 lung): > 100 µM
- TGI (M19-MEL melanoma): > 100 µM
- TGI (OVCAR-8 ovarian): > 100 µM
- TGI (ACHN renal): > 100 µM
- TGI (CAKI-1 renal): > 100 µM
- TGI (LXFL 529 NSCLC): > 100 µM
- TGI (UO-31 renal): > 100 µM
- TGI (KM12 colon): > 100 µM
- TGI (MALME-3M melanoma): > 100 µM
- TGI (DLD-1 colon): > 100 µM
- TGI (NCI-H226 lung): > 100 µM
